Read-outs that look alike come from different tables or passages of the source.
Test system: recombinant NL-Rluc virus
Assay: Inhibition of HIV replication (NL-RLuc luciferase reporter virus, MT-2 cells)
Type: cell-based
Conditions: Human immunodeficiency virus 1, MT2, 120 h

Row | SMILES | EC50 (read-out: Activity) | EC50 (read-out: EC50 μM)
1 | Cc1nc2cc(C(=O)NC(C)c3ccccc3)nn2c(-c2cc(F)c3c(c2C)CCCO3)c1[C@H](OC(C)(C)C)C(=O)O (stereo partly shown) [Example 39] | < 0.1 µM | 
2 | Cc1nc2cc(C(=O)N(C)CCc3ccccc3)nn2c(-c2cc(F)c3c(c2C)CCCO3)c1[C@H](OC(C)(C)C)C(=O)O [Example 96, (2S)-2-(tert-butoxy)-2-(7-(8-fluoro-5-methylchroman-6-yl)-5-methyl-2-(methyl(phenethyl)carbamoyl)pyrazolo[1,5-a]pyrimidin-6-yl)acetic acid] | < 0.1 µM | 0.077 µM
3 | Cc1nc2cc(C(=O)NCc3ccccc3)nn2c(-c2cc(F)c3c(c2C)CCCO3)c1[C@H](OC(C)(C)C)C(=O)O [Example 4, (2S)-2-(2-(Benzylcarbamoyl)-7-(8-fluoro-5-methylchroman-6-yl)-5-methylpyrazolo[1,5-a]pyrimidin-6-yl)-2-(tert-butoxy)acetic acid] | < 0.1 µM | 
4 | Cc1nc2cc(C(=O)NCc3ccc(Cl)cc3Cl)nn2c(-c2cc(F)c3c(c2C)CCCO3)c1[C@H](OC(C)(C)C)C(=O)O [Example 108, (2S)-2-(tert-butoxy)-2-(2-((2,4-dichlorobenzyl)carbamoyl)-7-(8-fluoro-5-methylchroman-6-yl)-5-methylpyrazolo[1,5-a]pyrimidin-6-yl)acetic acid] | < 0.1 µM | 0.013 µM
5 | Cc1nc2cc(C(=O)N3CCN(c4cccc(Cl)c4)CC3)nn2c(-c2cc(F)c3c(c2C)CCCO3)c1[C@H](OC(C)(C)C)C(=O)O [Example 80, (2S)-2-(tert-butoxy)-2-(2-(4-(3-chlorophenyl)piperazine-1-carbonyl)-7-(8-fluoro-5-methylchroman-6-yl)-5-methylpyrazolo[1,5-a]pyrimidin-6-yl)acetic acid] | < 0.1 µM | 
6 | Cc1nc2cc(C(=O)NCc3ccccc3Cl)nn2c(-c2cc(F)c3c(c2C)CCCO3)c1[C@H](OC(C)(C)C)C(=O)O [Example 40, (2S)-2-(tert-butoxy)-2-(2-((2-chlorobenzyl)carbamoyl)-7-(8-fluoro-5-methylchroman-6-yl)-5-methylpyrazolo[1,5-a]pyrimidin-6-yl)acetic acid] | < 0.1 µM | 
7 | CNC(=O)c1cc(F)ccc1CNC(=O)c1cc2nc(C)c([C@H](OC(C)(C)C)C(=O)O)c(-c3cc(F)c4c(c3C)CCCO4)n2n1 [Example 30, (2S)-2-(tert-butoxy)-2-(2-((4-fluoro-2-(methylcarbamoyl)benzyl)carbamoyl)-7-(8-fluoro-5-methylchroman-6-yl)-5-methylpyrazolo[1,5-a]pyrimidin-6-yl)acetic acid] | 0.1 to 1 µM | 3.2 µM
8 | Cc1nc2cc(C(=O)NCCCC3CCCCC3)nn2c(-c2cc(F)c3c(c2C)CCCO3)c1[C@H](OC(C)(C)C)C(=O)O [Example 131] | < 0.1 µM | 
9 | Cc1nc2cc(C(=O)NCCCN3CCOCC3)nn2c(-c2cc(F)c3c(c2C)CCCO3)c1[C@H](OC(C)(C)C)C(=O)O [Example 107] | > 1 µM | 
10 | Cc1nc2cc(C(=O)NCc3ccc(Cl)cc3)nn2c(-c2cc(F)c3c(c2C)CCCO3)c1[C@H](OC(C)(C)C)C(=O)O [Example 46, (2S)-2-(tert-butoxy)-2-(2((4-chlorobenzyl)carbamoyl)-7-(8-fluoro-5-methylchroman-6-yl)-5-methylpyrazolo[1,5-a]pyrimidin-6-yl)acetic acid] | < 0.1 µM | 
11 | Cc1nc2cc(C(=O)NCc3cccc(OC(F)(F)F)c3)nn2c(-c2cc(F)c3c(c2C)CCCO3)c1[C@H](OC(C)(C)C)C(=O)O [Example 67] | < 0.1 µM | 0.009 µM
12 | CON(Cc1ccc(F)cc1)C(=O)c1cc2nc(C)c([C@H](OC(C)(C)C)C(=O)O)c(-c3cc(F)c4c(c3C)CCCO4)n2n1 [Example 17, (2S)-2-(tert-butoxy)-2-(7-(8-fluoro-5-methylchroman-6-yl)-2-((4-fluorobenzyl)(methoxy)carbamoyl)-5-methylpyrazolo[1,5-a]pyrimidin-6-yl)acetic acid] | < 0.1 µM | 
13 | Cc1nc2cc(C(=O)NCc3cccnc3)nn2c(-c2cc(F)c3c(c2C)CCCO3)c1[C@H](OC(C)(C)C)C(=O)O [Example 61, (2S)-2-(tert-butoxy)-2-(7-(8-fluoro-5-methylchroman-6-yl)-5-methyl-2-((pyridin-3-ylmethyl)carbamoyl)pyrazolo[1,5-a]pyrimidin-6-yl)acetic acid] | > 1 µM | 
14 | Cc1nc2cc(C(=O)NCc3csc(-c4ccccc4)n3)nn2c(-c2cc(F)c3c(c2C)CCCO3)c1[C@H](OC(C)(C)C)C(=O)O [Example 45, (2S)-2-(tert-butoxy)-2-(7-(8-fluoro-5-methylchroman-6-yl)-5-methyl-2-(((2-phenylthiazol-4-yl)methyl)carbamoyl)pyrazolo[1,5-a]pyrimidin-6-yl)acetic acid] | < 0.1 µM | 
15 | Cc1cccc(CNC(=O)c2cc3nc(C)c([C@H](OC(C)(C)C)C(=O)O)c(-c4cc(F)c5c(c4C)CCCO5)n3n2)c1 [Example 6] | < 0.1 µM | 
16 | Cc1nc2cc(C(=O)N3CCC(c4ccc(Cl)cc4)CC3)nn2c(-c2cc(F)c3c(c2C)CCCO3)c1[C@H](OC(C)(C)C)C(=O)O [Example 86, (2S)-2-(tert-butoxy)-2-(2-(4-(4-chlorophenyl)piperidine-1-carbonyl)-7-(8-fluoro-5-methylchroman-6-yl)-5-methylpyrazolo[1,5-a]pyrimidin-6-yl)acetic acid] | < 0.1 µM | 
17 | Cc1nc2cc(C(=O)NCc3ccc(Cl)c(C(F)(F)F)c3)nn2c(-c2cc(F)c3c(c2C)CCCO3)c1[C@H](OC(C)(C)C)C(=O)O [Example 120, (2S)-2-(tert-butoxy)-2-(2-((4-chloro-3-(trifluoromethyl)benzyl)carbamoyl)-7-(8-fluoro-5-methylchroman-6-yl)-5-methylpyrazolo[1,5-a]pyrimidin-6-yl)acetic acid] | < 0.1 µM | 
18 | Cc1nc2cc(C(=O)N3CCN(Cc4ccccc4)CC3)nn2c(-c2cc(F)c3c(c2C)CCCO3)c1[C@H](OC(C)(C)C)C(=O)O [Example 94, (2S)-2-(2-(4-benzylpiperazine-1-carbonyl)-7-(8-fluoro-5-methylchroman-6-yl)-5-methylpyrazolo[1,5-a]pyrimidin-6-yl)-2-(tert-butoxy)acetic acid] | 0.1 to 1 µM | 
19 | Cc1nc2cc(C(=O)NCC34C[C@H]5C[C@@H](C3)C[C@@H](C4)C5)nn2c(-c2cc(F)c3c(c2C)CCCO3)c1[C@H](OC(C)(C)C)C(=O)O [Example 126, (2S)-2-(2-(((3S,5S,7S)-adamantan-1-ylmethyl)carbamoyl)-7-(8-fluoro-5-methylchroman-6-yl)-5-methylpyrazolo[1,5-a]pyrimidin-6-yl)-2-(tert-butoxy)acetic acid] | < 0.1 µM | 
20 | Cc1nc2cc(C(=O)NCc3cccc(Cl)c3)nn2c(-c2cc(F)c3c(c2C)CCCO3)c1[C@H](OC(C)(C)C)C(=O)O [Example 54, (2S)-2-(tert-butoxy)-2-(2((3-chlorobenzyl)carbamoyl)-7-(8-fluoro-5-methylchroman-6-yl)-5-methylpyrazolo[1,5-a]pyrimidin-6-yl)acetic acid] | < 0.1 µM | 
21 | Cc1nc2cc(C(=O)NCc3ccc(F)cc3-n3ncnc3C)nn2c(-c2cc(F)c3c(c2C)CCCO3)c1C(OC(C)(C)C)C(=O)O (stereo in doubt) [Example 9, (2S)-2-(tert-butoxy)-2-(2-((4-fluoro-2-(5-methyl-1H-1,2,4-triazol-1-yl)benzyl)carbamoyl)-7-(8-fluoro-5-methylchroman-6-yl)-5-methylpyrazolo[1,5-a]pyrimidin-6-yl)acetic acid] | 0.1 to 1 µM | 
